The values that follow come from PMC10693084, “Novel 8-Methoxycoumarin-3-Carboxamides with potent anticancer activity against liver cancer via targeting caspase-3/7 and β-tubulin polymerization” (BMC Chemistry, 2023).

For data set [1], the system named is human liver carcinoma HepG2 cells. The data set can be described thus: MTT cytotoxicity assay against HepG2 cells. The settings on record: HepG2 cells. It is filed as cell-based. Here is the method:
To assess the antitumor properties of these compounds, we utilized the 3-(4,5-dimethylthiazol-2-yl)-2,5-diphenyl tetrazolium bromide (MTT) colorimetric assay, a widely used method to evaluate cell viability and cytotoxicity.
Following the incubation period, the cells were subjected to various concentrations of the prepared molecules and subsequently incubated for a duration of 24 h. […] Subsequently, a volume of 100 μL of dimethyl sulfoxide (DMSO) was introduced into each well in order to facilitate the dissolution of the purple formazan that had been generated. The quantification of the color intensity of the formazan product, which serves as an indicator of the cellular growth condition, is performed by employing an ELISA plate reader set at a wavelength of 570 nm. The experimental conditions were implemented with a minimum of three replicates, and the experiments were conducted on at least three separate occasions.
(Tetrazolium dyes change colour on reduction, which living cells bring about.)

The test system of another data set is caspase-3/7. The data set can be described thus: Caspase-3/7 green flow cytometric assay in HepG2 cells. It is filed as cell-based, human. The settings on record: HepG2 cells treated with compound. The text has this: Caspase-3 is a cysteine-aspartic protease protein that facilitates the enzymatic cleavage of specific target proteins. It consists of two subunits, specifically a 12-kDa subunit and a 17-kDa subunit, which are characterized by the presence of three and five thiol functions, respectively. […] The crucial involvement of the terminal caspase-3/7 activation is observed in the initiation of apoptosis and subsequent cell demise in neoplastic cells. To gain more insight into the apoptotic mode of action for compound 5, we assessed the active caspase-3/7 levels in HepG2 cells utilizing a green flow cytometric assay. […] Compared to the control group of untreated HepG2 cells, there was a remarkable 5.6-fold rise in the levels of active Caspase-3/7 upon treatment with compound 5. […] These findings provide valuable insights into the potential mechanism of action of compound 5 as an anti-cancer agent. Activation of Caspase-3/7 is a pivotal step in the apoptotic pathway, leading to the programmed destruction of cancer cells. […]
The HepG2 cell line was subjected to treatment with compound 5, and subsequently, an analysis was conducted using the Cell Event caspase-3/7 green flow assay. […] Subsequently, the cells were assessed utilizing the BD FACS CALIBER flow cytometer.

For a further data set, the system named is HepG2 cells. The data set can be described thus: Annexin V-FITC/PI apoptosis screening. It is filed as cell-based, human. To be noted: HepG2, IC50 concentration, 24 h. From the text:
Next, we have conducted Annexin V-FITC/PI screening to further investigate the impact of compound 5 on the growth of HepG2 cells and comprehensively analyze programmed cell death. The Annexin V-FITC/PI assay is a widely used method to differentiate between apoptotic and necrotic cells based on their membrane integrity and phospholipid exposure. […] The results from the Annexin V-FITC/PI screening provide crucial insights into the mode of action of compound 5 in inducing cell death in HepG2 cells. Annexin V-FITC is a marker that binds specifically to phosphatidylserine (PS), a phospholipid that becomes externalized on the cell membrane during early apoptosis. Propidium iodide (PI) is a dye that can penetrate cells with compromised membranes, typically found in late-stage apoptosis or necrosis. […] This is important since apoptosis is a highly regulated process, and its induction is a favorable outcome for anti-cancer therapies, as opposed to necrosis, which is often associated with cell death caused by injury or external damage. Overall, these findings from the Annexin V-FITC/PI screening support the ability of compound 5 to induce apoptosis in HepG2 cells and its lack of significant induction of necrosis reinforce its potential as a promising candidate for anti-cancer therapy.
Apoptosis detection in HepG-2 cells was conducted utilizing the BioVision® annexin‐V‐FITC apoptosis detection kit in accordance with the instructions provided by the manufacturer. The quantification of apoptosis was performed using a FACS Calibur flow cytometer, with a wavelength of 488 nm. In a concise manner, a total of 1–5 × 10^5 cells were obtained through the process of centrifugation. The cells were subsequently exposed to compound 5 at concentrations corresponding to its IC50 value for a duration of 24 h. Following this treatment, the cells were resuspended in a binding buffer solution with a volume of 500 μl. The addition of Annexin-V-FITC and PI was performed. Subsequently, the specimens were subjected to incubation at ambient temperature for a duration of 5 min, while being shielded from light. The analysis of Annexin-V-FITC binding was conducted utilizing a dedicated signal detector.

The term IC50 denotes the concentration needed to halve the response being measured. Low readings indicate greater potency, high ones weaker potency. As to `COc1ccc(Br)c2cc(C(N)=O)c(=O)oc12` [Compound 5, 5-Bromo-8-methoxycoumarin-3-carboxamide], the “Structure–activity summary of cytotoxic activity (Fig. 4B)” value in data set [1] was “improved activity”. For the same compound, in data set [1] (Homo sapiens, HepG2, 24 h, MTT, 24 h treatment), the concentration for half-maximal inhibition (IC50) turned out to be 0.9 ± 0.05 µM. In addition, the “rise in levels of active Caspase-3/7 vs untreated HepG2 cells” value with caspase-3/7 is 5.6 fold. Besides, in the data set on HepG2 cells, the “fold increase of early apoptosis vs control” value worked out at 42 fold, the “fold increase of late-stage apoptosis vs control” value was 100 fold, the “fold increase of necrosis vs untreated” value is “threefold” and the “fold increase of programmed cell death vs untreated” value was 22 fold. The “percentage of cells in late-stage apoptosis” value in the data set with HepG2 cells (control 0.22%) came out at 22.16%. Also, the “percentage of cells undergoing early apoptosis” value with HepG2 cells (control 0.46%) was 19.51%. Further, the “percentage of cells undergoing necrosis” value in the data set with HepG2 cells (untreated 1.4%) is on record as 4.21%. The “total percentage of programmed cell death” value in the data set on HepG2 cells (untreated 2.08%) was 45.88%.
